Results as given in PubChem BioAssay AID192 (DTP/NCI, 2004).
Several values for one entry are separate records, joined by “and”; a condition that tells them apart may be missing. Identical values can stand only once. Inconclusive results and toxic doses are left out. How the source made its calls: active means survival T/C of 150% or more; inactive means T/C below 125% in these data.

Tested on: BDF1 mice, B16 melanoma ip, median survival T/C
Assay: NCI In Vivo Anticancer Drug Screen. Data for tumor model B16 Melanoma (intraperitoneal) in B6D2F1 (BDF1) mice
Conditions: endpoint: median survival time, higher = longer survival
Procedure, shortened: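 Antitumor activity is assessed in mice bearing a transplanted tumor, with survival or tumor size compared against vehicle-dosed controls and expressed as T/C.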

[1] = dose: 12.5 mg/kg/injection, schedule: Q01DX009 (ip), vehicle: Klucel (hydroxypropylcellulose) (HPC)
[2] = dose: 25.0 mg/kg/injection, schedule: Q01DX009 (ip), vehicle: Klucel (hydroxypropylcellulose) (HPC)
[3] = dose: 50.0 mg/kg/injection, schedule: Q01DX009 (ip), vehicle: Klucel (hydroxypropylcellulose) (HPC)
[4] = dose: 50.0 mg/kg/injection, schedule: Q01DX009 (ip), vehicle: saline
[5] = dose: 100.0 mg/kg/injection, schedule: Q01DX009 (ip), vehicle: saline
[6] = dose: 100.0 mg/kg/injection, schedule: Q01DX009 (ip), vehicle: Klucel (hydroxypropylcellulose) (HPC)

Measured: T/C

CNc1ccc(C(=O)O)cc1OC
inactive: dose: 100.0 mg/kg/injection, schedule: Q04DX003 (ip), vehicle: saline with Tween-80 95 % of control | dose: 200.0 mg/kg/injection, schedule: Q04DX003 (ip), vehicle: saline with Tween-80 91 % of control | dose: 400.0 mg/kg/injection, schedule: Q04DX003 (ip), vehicle: saline with Tween-80 90 % of control

CCOC(=O)C(C)Oc1ccc(Cl)cc1 (centres undefined)
inactive: dose: 50.0 mg/kg/injection, schedule: Q01DX009 (ip), vehicle: other 111 % of control | dose: 100.0 mg/kg/injection, schedule: Q01DX009 (ip), vehicle: other 104 % of control | dose: 200.0 mg/kg/injection, schedule: Q01DX009 (ip), vehicle: other 106 % of control | dose: 400.0 mg/kg/injection, schedule: Q01DX009 (ip), vehicle: other 102 % of control

Cc1cc(C(=O)NNCc2ccccc2)no1
inactive: dose: 3.12 mg/kg/injection, schedule: Q01DX009 (ip), vehicle: Klucel (hydroxypropylcellulose) (HPC) 88 % of control and 98 % of control | dose: 6.25 mg/kg/injection, schedule: Q01DX009 (ip), vehicle: Klucel (hydroxypropylcellulose) (HPC) 88 % of control and 98 % of control | [1] 99 % of control | [2] 90 % of control and 92 % of control and 102 % of control | [3] 90 % of control

CC(=N\O)/C(C)=N/O.CC(=N\O)/C(C)=N/O.[Ni]
inactive: dose: 3.0 mg/kg/injection, schedule: Q01DX009 (ip), vehicle: saline with Tween-80 93 % of control | dose: 6.0 mg/kg/injection, schedule: Q01DX009 (ip), vehicle: saline with Tween-80 87 % of control

COC(=O)Nc1nc2ccc(C(=O)c3ccccc3)cc2[nH]1
inactive: dose: 2.0 mg/kg/injection, schedule: Q04DX003 (ip), vehicle: saline with Tween-80 95 % of control | dose: 4.0 mg/kg/injection, schedule: Q04DX003 (ip), vehicle: saline with Tween-80 106 % of control | dose: 8.0 mg/kg/injection, schedule: Q04DX003 (ip), vehicle: saline with Tween-80 101 % of control | dose: 15.0 mg/kg/injection, schedule: Q04DX003 (ip), vehicle: saline with Tween-80 114 % of control | dose: 16.0 mg/kg/injection, schedule: Q04DX003 (ip), vehicle: saline with Tween-80 103 % of control | dose: 200.0 mg/kg/injection, schedule: Q04DX003 (oral), vehicle: saline with Tween-80 115 % of control

O=C(O)C1CC1.[Ag]
inactive: dose: 0.78 mg/kg/injection, schedule: Q01DX009 (ip), vehicle: water 114 % of control | dose: 1.56 mg/kg/injection, schedule: Q01DX009 (ip), vehicle: water 108 % of control | dose: 3.12 mg/kg/injection, schedule: Q01DX009 (ip), vehicle: water 108 % of control | dose: 6.25 mg/kg/injection, schedule: Q01DX009 (ip), vehicle: water 93 % of control | dose: 12.5 mg/kg/injection, schedule: Q01DX009 (ip), vehicle: water 91 % of control

CCCCCCC1N(Cc2ccccc2N(C)C)CCCN1Cc1ccccc1N(C)C
inactive: dose: 75.0 mg/kg/injection, schedule: Q01DX009 (ip), vehicle: saline 97 % of control

CCO/C([O-])=C/[P+](c1ccccc1)(c1ccccc1)c1ccccc1
inactive: [1] 103 % of control | [2] 103 % of control | [3] 100 % of control

O=CC1CO1 (centres undefined)
inactive: dose: 12.5 mg/kg/injection, schedule: Q01DX009 (ip), vehicle: saline sonified 90 % of control | dose: 25.0 mg/kg/injection, schedule: Q01DX009 (ip), vehicle: saline sonified 90 % of control | dose: 50.0 mg/kg/injection, schedule: Q01DX009 (ip), vehicle: saline sonified 97 % of control

ClCC[N-]CC[N-]CCCl.ClCC[N-]CC[N-]CCCl.[O-][Cl+3]([O-])([O-])O.[Zn+2]
inactive: dose: 2.5 mg/kg/injection, schedule: Q01DX009 (ip), vehicle: Klucel (hydroxypropylcellulose) (HPC) 106 % of control | dose: 5.0 mg/kg/injection, schedule: Q01DX009 (ip), vehicle: Klucel (hydroxypropylcellulose) (HPC) 92 % of control | dose: 10.0 mg/kg/injection, schedule: Q01DX009 (ip), vehicle: Klucel (hydroxypropylcellulose) (HPC) 101 % of control | dose: 20.0 mg/kg/injection, schedule: Q01DX009 (ip), vehicle: Klucel (hydroxypropylcellulose) (HPC) 104 % of control

NC(=O)C1(N2CCCCC2)CCN(CCCC(=O)c2ccc(F)cc2)CC1
inactive: dose: 6.25 mg/kg/injection, schedule: Q01DX009 (ip), vehicle: saline 108 % of control | dose: 12.5 mg/kg/injection, schedule: Q01DX009 (ip), vehicle: saline 108 % of control | dose: 25.0 mg/kg/injection, schedule: Q01DX009 (ip), vehicle: saline 113 % of control | [4] 105 % of control | [5] 105 % of control

CCN(C(=O)Nc1ccccc1OC)c1ccccc1
inactive: [6] 89 % of control

CC[N+]1(CC)CC[N+]2(CC1)CC[N+]1(CC[N+](CC)(CC)CC1)CC2
inactive: [4] 94 % of control | [5] 100 % of control | dose: 200.0 mg/kg/injection, schedule: Q01DX009 (ip), vehicle: saline 94 % of control

OC(COc1ccccc1)CN1CCCCC1 (centres undefined)
inactive: dose: 100.0 mg/kg/injection, schedule: Q01DX009 (ip), vehicle: saline with Tween-80 112 % of control | dose: 200.0 mg/kg/injection, schedule: Q01DX009 (ip), vehicle: saline with Tween-80 102 % of control | dose: 400.0 mg/kg/injection, schedule: Q01DX009 (ip), vehicle: saline with Tween-80 114 % of control

C/C=C(\C)C(=O)N/N=C\c1cc(Cl)cc(Cl)c1O
inactive: dose: 25.0 mg/kg/injection, schedule: Q01DX009 (ip), vehicle: olive oil, sesame oil, peanut oil 88 % of control | dose: 100.0 mg/kg/injection, schedule: Q01DX009 (ip), vehicle: olive oil, sesame oil, peanut oil 89 % of control | dose: 200.0 mg/kg/injection, schedule: Q01DX009 (ip), vehicle: olive oil, sesame oil, peanut oil 86 % of control

COc1cccc(C)c1[N+](=O)[O-]
inactive: dose: 75.0 mg/kg/injection, schedule: Q04DX003 (ip), vehicle: Klucel (hydroxypropylcellulose) (HPC) 92 % of control | dose: 150.0 mg/kg/injection, schedule: Q04DX003 (ip), vehicle: Klucel (hydroxypropylcellulose) (HPC) 109 % of control | dose: 300.0 mg/kg/injection, schedule: Q04DX003 (ip), vehicle: Klucel (hydroxypropylcellulose) (HPC) 90 % of control

COc1ccccc1NC(=O)Oc1ccc(-c2ccccc2)cc1Br
inactive: [6] 100 % of control | dose: 100.0 mg/kg/injection, schedule: Q04DX003 (ip), vehicle: Klucel (hydroxypropylcellulose) (HPC) 100 % of control | dose: 200.0 mg/kg/injection, schedule: Q01DX009 (ip), vehicle: Klucel (hydroxypropylcellulose) (HPC) 96 % of control | dose: 200.0 mg/kg/injection, schedule: Q04DX003 (ip), vehicle: Klucel (hydroxypropylcellulose) (HPC) 90 % of control | dose: 400.0 mg/kg/injection, schedule: Q01DX009 (ip), vehicle: Klucel (hydroxypropylcellulose) (HPC) 96 % of control | dose: 400.0 mg/kg/injection, schedule: Q04DX003 (ip), vehicle: Klucel (hydroxypropylcellulose) (HPC) 96 % of control

CCCCCCCCCCCCCCCC(=O)O[C@@]12C[C@@H](C)[C@@]3(O)[C@@H](C=C(CO)C[C@]4(O)C(=O)C(C)=C[C@@H]34)[C@@H]1C2(C)C
inactive: dose: 0.03 mg/kg/injection, schedule: Q01DX009 (ip), vehicle: saline + Tween-80 + alcohol 103 % of control | dose: 0.03 mg/kg/injection, schedule: Q01DX009 (ip), vehicle: saline 94 % of control | dose: 0.06 mg/kg/injection, schedule: Q01DX009 (ip), vehicle: saline + Tween-80 + alcohol 109 % of control | dose: 0.06 mg/kg/injection, schedule: Q01DX009 (ip), vehicle: saline 99 % of control | dose: 0.12 mg/kg/injection, schedule: Q01DX009 (ip), vehicle: saline 96 % of control | dose: 0.13 mg/kg/injection, schedule: Q01DX009 (ip), vehicle: other 103 % of control | dose: 0.13 mg/kg/injection, schedule: Q01DX009 (ip), vehicle: saline + Tween-80 + alcohol 110 % of control | dose: 0.25 mg/kg/injection, schedule: Q01DX009 (ip), vehicle: saline 92 % of control | dose: 0.5 mg/kg/injection, schedule: Q01DX009 (ip), vehicle: saline 92 % of control
